Here are results for two molecules from EP2135604A1, “INFUSION PREPARATION FOR CANCER PATIENT” (Matsui, Hirofumi, priority 2007, dated 2008).

Test [1] concerns rat stomach cancer cell line (RGK-37). Nature of the test: Culture in glucose-free, 3% glutamine medium, observation under a microscope. The format is cell-based. Conditions: RGK-37 tumor cells, absence of glucose, 120 hours. The procedure:
(§1) A rat stomach mucous membrane cell line (RGM) and a rat stomach cancer cell line (RGK-37) were cultured in Gibco#11330-032 DMEM/F12 medium and Sigma#D6421 DMEM/F12 medium, respectively. Each culture was cultured in the absence of glucose and in the presence of 3% glutamine for 120 hours. Subsequently, the cells were observed under a microscope.

Test [2] deals with rat stomach mucous membrane cell line (RGM). The description is as above. The format is cell-based. Conditions: RGM non-tumor cells, absence of glucose, 120 hours. The protocol: as §1
The test system of test [3] is rat stomach mucous membrane cells. Nature of the test: Chemical carcinogenesis with L-glutamine added to the growth medium. The note with it: addition of L-glutamine to the growth medium. The format is cell-based.
The test system of test [4] is rats infected with Helicobacter pylori. The note with it: reported by Patent Document 4; cited from earlier work.
For test [5], the system named is rat stomach cancer cell line (RGK-37). The test is described as follows: BrdU uptake (ELISA) at different glucose concentrations in the growth medium. The format is cell-based. The note with it: medium with 0, 0.3 or 1.3 g/L of glucose, 1%FBS, 1% L-glutamine, 24 hours, relative to 3 g/L glucose (= 1). The procedure: (§2) A rat stomach mucous membrane cell line (RGM) and a rat stomach cancer cell line (RGK-37) were cultured in Gibco#11330-032 DMEM/F12 medium and L-glutamine-free Sigma#D6421 DMEM/F12 medium, respectively. Each culture was supplemented with 10% FBS and was cultured during the logarithmic growth phase. The growth medium was then replaced with a growth medium containing 0, 0.3 or 1.3 g/L of glucose and supplemented with 1%FBS and 1% L-glutamine. After 24 hours of culturing, bromodeoxyuridine (BrdU) was added to each culture. 2 hours after the addition of BrdU, the BrdU uptake was measured by ELISA. The BrdU uptake for each culture is shown in Fig. 1 relative to the uptake obtained at a glucose concentration of 3 g/L (= 1).

For test [6], the system named is rat stomach mucous membrane cell line (RGM). The test is described as above. The format is cell-based. The note with it: medium with 0, 0.3 or 1.3 g/L of glucose, 1%FBS, 1% L-glutamine, 24 hours, relative to 3 g/L glucose (= 1). The procedure:
as §2

Test [7] has as its system tumor cell lines of rat and human stomach cancer. Nature of the test: Protein levels at decreased glucose levels in the culture medium. The test is classed as cell-based. The note with it: rat stomach cancer tumor cell line; decreasing glucose levels in the culture medium.
For test [8] the test system is unchanged. The description is as above. The format is cell-based. The note with it: human stomach cancer tumor cell line; decreasing glucose levels in the culture medium.
Test [9] concerns normal stomach mucous cell line of rat. Described as above. The format is cell-based.

Turning to `NC(=O)CC[C@H](N)C(=O)O` [L-glutamine], the entries for the “cell survival / apoptosis (microscope)” value in test [1] and in [1] (listed as glutamine) were “apoptosis is induced” and “apoptosis was induced”, respectively. Also, the results for the “cell survival (microscope)” value in [2] and in [2] (listed as glutamine) were “can survive” and “survived”, respectively. Further, the chemical carcinogenesis result in [3] was “suppresses chemical carcinogenesis”. For the same molecule, the “onset of legions resembling stomach cancer” value in test [4] was “ability to suppress the onset of legions resembling stomach cancer”.
Turning to `OC[C@H]1OC(O)[C@H](O)[C@@H](O)[C@@H]1O` (some centres unmarked) [glucose], the BrdU uptake result was “decreased relatively with decreasing concentrations of glucose” in test [5] and “relatively constant” in test [6]. Further, the protein levels result is “decreased protein levels” in test [7], “decreased protein levels” in [8] and “no changes” in test [9].
